Reference: patent publication US5565483A, “3-substituted oxindole derivatives as potassium channel modulators” (Bristol-Myers Squibb Company, priority 1995, dated 1996)

Test system: cloned mammalian (mSIo or hSIo) BK channels
Experiment: Increase of cloned BK-mediated outward current in Xenopus oocytes, two-electrode voltage clamp
Type: cell-based
Settings: at 20 μM; at least 5 oocytes; mSIo or hSIo expressed in Xenopus oocytes
Description: The ability of compounds described in the present invention to open BK channels and increase whole-cell outward (K^+) BK-mediated currents was assessed under voltage-clamp conditions by determining their ability to increase cloned mammalian (mSIo or hSIo) BK--mediated outward current heterologously expressed in Xenopus oocytes [Butler, A., et al., Science, 261:221-224 (1993); and Dworetzky, S. I., etal., Mol. Brain Res., 27: 189-193 (1994)]. The two BK constructs employed represent nearly structurally identical homologous proteins, and have proven to be pharmacologically identical in our tests. To isolate BK current from native (background, non-BK) current, the specific and potent BK channel-blocking toxin iberiotoxin (IBTX) [Galvez, A., et al., J. Biol. Chem. 265:11083-11090 (1990)] was employed at a supramaximal concentration (50 nM). The relative contribution of BK channels current to total outward current was determined by subtraction of the current remaining in the presence of IBTX (non-BK current) from the current profiles obtained in all other experimental conditions (control, drug, and wash). […] All compounds were tested in at least 5 oocytes and are reported at the single concentration of 20 uM; the effect of the selected compounds of Formula I on BK current was expressed as the percent of control IBTX-sensitive current and is listed in Table I. Recordings were accomplished using standard two-electrode voltage clamp techniques [Stuhmer, W., et al., Methods in Enzymology, Vol. 207:319-339 (1992)]; voltage-clamp protocols consisted of 500-750 ms duration step depolarizations from a holding potential of -60 mV to +140 mV in 20 mV steps. The experimental media (modified Barth's solution) consisted of (in mM): NaCl (88), NaHCO3 (2.4), KCl (1.0), HEPES (10), MgSO4 (0.82), Ca(NO3)2 (0.33), CaCl2 (0.41); pH 7.5.

| Compound | BK Current, percent of control IBTX-sensitive current |
| --- | --- |
| COc1ccc(Cl)cc1C1(O)C(=O)Nc2cc(C(F)(F)F)ccc21 (racemic) [Example 1, (±)-3-(5-Chloro-2-methoxyphenyl)-1,3-dihydro-3-hydroxy-6-(trifluoromethyl)-2H-indol-2-one] | + (+ = 100-125%) |
| O=C1Nc2cc(C(F)(F)F)ccc2C1(O)c1cc(Cl)ccc1O (racemic) [Example 3, (±)-3-(5-Chloro-2-hydroxyphenyl)-1,3-dihydro-3-hydroxy-6-(trifluoromethyl)-2H-indol-2-one] | ++ (++ = 125-150%) |
| O=C1Nc2cc(C(F)(F)F)ccc2C1c1cc(Cl)ccc1O (racemic) [Example 4, (±)-3-(5-Chloro-2-hydroxyphenyl)-1,3-dihydro-6-(trifluoromethyl)-2H-indol-2-one] | +++ (+++ = >150%) |
| O=C1Nc2cc(Cl)cc(Cl)c2C1(O)c1cc(Cl)ccc1O (racemic) [Example 6, (±)-3-(5-Chloro-2-dhydroxyphenyl)-4,6-dichloro-1,3-dihydro-3-hydroxy-2-H-indol-2-one] | + (+ = 100-125%) |
| O=C1Nc2c(C(F)(F)F)cccc2C1(O)c1cc(Cl)ccc1O (racemic) [Example 7, (±)-3-(5-Chloro-2-hydroxyphenyl)-1,3-dihydro-3-hydroxy-7-(trifluoromethyl)-2H-indol-2-one] | + (+ = 100-125%) |
| O=C1Nc2cc(C(F)(F)F)ccc2C1(O)c1cc(C(F)(F)F)ccc1O (racemic) [Example 9, (±)-1,3-Dihydro-3-hydroxy-3-[2-hydroxy-5-(trifluoromethyl)phenyl]-6-(trifluoromethyl)-2H-indol-2-one] | ++ (++ = 125-150%) |
| COc1ccc(Cl)cc1C1(F)C(=O)Nc2cc(C(F)(F)F)ccc21 (racemic) [Example 14, (±)-3-(5-Chloro-2-methoxyphenyl)-1,3-dihydro-3-fluoro-6-(trifluoromethyl)-2H-indol-2-one] | ++ (++ = 125-150%) |
| O=C1Nc2c(ccc3ccccc23)C1(O)c1cc(Cl)ccc1O (racemic) [Example 15, (±)-3-(5-Chloro-2-hydroxyphenyl)-1,3-dihydro-3-hydroxy-2H-benz[g]indol-2-one] | +++ (+++ = >150%) |
| O=C1Nc2cc(-c3ccccc3)ccc2C1c1cc(Cl)ccc1O (racemic) [Example 16, (±)-3-(5-Chloro-2-hydroxyphenyl)-1,3-dihydro-6-phenyl-2H-indol-2-one] | +++ (+++ = >150%) |
| O=C1Nc2ccc3ccccc3c2C1c1cc(Cl)ccc1O (racemic) [Example 22, (±)-3-(5--Chloro-2-hydroxyphenyl)-1,3-dihydro-2H-benz[e]indol-2-one] | +++ (+++ = >150%) |
| COc1ccc(Cl)cc1C1(F)C(=O)Nc2ccc(F)cc21 (racemic) [Example 25, (±)-3-(5-Chloro-2-methoxyphenyl)-1,3-dihydro-3,5-difluoro-2H-indol-2-one] | + (+ = 100-125%) |
| O=C1Nc2cc(Cl)cc(Cl)c2C1c1cc(Cl)ccc1O (racemic) [Example 31, (±)-3-(5-Chloro-2-hydroxyphenyl)-4,6-dichloro-1,3-dihydro-2H-indol-2-one] | + (+ = 100-125%) |
| O=C1Nc2cc(I)ccc2C1c1cc(Cl)ccc1O (racemic) [Example 33, (±)-3-(5-Chloro-2-hydroxyphenyl)-1,3-dihydro-6-iodo-2H-indol-2-one] | +++ (+++ = >150%) |
| O=C1Nc2cc(C(F)(F)F)ccc2C1(O)c1cc(Cl)ccc1O (single isomer, unassigned; (-)) [Example 13, (-)-3-(5-Chloro-2-hydroxyphenyl)-1,3-dihydro-3-hydroxy-6-(trifluoromethyl)-2H-indol-2-one] | ++ (++ = 125-150%) |

Test system: cortical infarct volume after MCAO
Experiment: Permanent middle cerebral artery occlusion (MCAO) focal stroke model
Type: in vivo, spontaneously hypertensive rat
Settings: intraparitoneally 10 mg/kg, single bolus 2 hours after MCAO; infarct measured 24 hours after MCAO; vs vehicle-treated control
Source text: To determine the ability of these compounds to reduce cell loss resulting from neuronal ischemia, a standard rodent model of permanent focal ischemia, involving occlusion of the middle cerebral artery in the spontaneously hypertensive rat (MCAO model) was employed [Tamura, A., et al., Journal of Cerebral Blood Flow and Metabolism, Volume 1, 53-60, (1981)].
Selected compounds have been evaluated in the focal stroke model involving permanent middle cerebral artery occlusion (MCAO) in the spontaneously hypertensive rat. This procedure results in a reliably large neocortical infarct volume that is measured by means of vital dye exclusion in serial slices through the brain 24 hours after MCAO. In the present test, compounds were administered using an i.v. or […]. route of administration at two hours after occlusion.

| Compound | reduction of cortical infarct volume |
| --- | --- |
| O=C1Nc2cc(C(F)(F)F)ccc2C1c1cc(Cl)ccc1O (racemic) [Example 4, (±)-3-(5-Chloro-2-hydroxyphenyl)-1,3-dihydro-6-(trifluoromethyl)-2H-indol-2-one] | about 26% |

Same assay, conditions: intravenously 0.03 mg/kg, single bolus 2 hours after MCAO; infarct measured 24 hours after MCAO; vs vehicle-treated control

| Compound | reduction of cortical infarct volume |
| --- | --- |
| O=C1Nc2cc(C(F)(F)F)ccc2C1c1cc(Cl)ccc1O (racemic) [Example 4, (±)-3-(5-Chloro-2-hydroxyphenyl)-1,3-dihydro-6-(trifluoromethyl)-2H-indol-2-one] | about 18% |
